Values after ≈ are worked out from the molar mass of the structure shown. Where two headings read alike, the source gives them in different places.
Test: Solubility of Compound I in various vehicles (high throughput screening, HPLC assay of solution phase)
Assay type: physicochemical
Method: Solubility of Compound 1 was determined using a high throughput screening method.
The above solubilities were determined by adding Compound I to the test system and stirred. Following an equilibrium time, the material in the solution phase is assayed by HPLC to determine solubility.

solubility (aqueous with cosolvent or surfactant or cyclodextrin, thermodynamic from solid, vehicle CREMOPHOR EL (aqueous solution), free base, read-out: Solubility in vehicle at ambient temperature): < 40 µg/mL
solubility (aqueous with cosolvent or surfactant or cyclodextrin, thermodynamic from solid, vehicle Methyl Cellulose (aqueous solution), free base, read-out: Solubility in vehicle at ambient temperature): < 40 µg/mL
solubility (aqueous with cosolvent or surfactant or cyclodextrin, thermodynamic from solid, vehicle Methyl Cellulose with SDS (aqueous solution), free base, read-out: Solubility in vehicle at ambient temperature): < 40 µg/mL
solubility (aqueous with cosolvent or surfactant or cyclodextrin, thermodynamic from solid, vehicle POLYSORBATE 80 (aqueous solution), free base, read-out: Solubility in vehicle at ambient temperature): < 40 µg/mL
solubility (aqueous with cosolvent or surfactant or cyclodextrin, thermodynamic from solid, vehicle Sodium lauryl sulfate (aqueous solution), free base, read-out: Solubility in vehicle at ambient temperature): < 40 µg/mL
solubility (aqueous with cosolvent or surfactant or cyclodextrin, thermodynamic from solid, vehicle Vitamin E TPGS (aqueous solution), free base, read-out: Solubility in vehicle at ambient temperature): < 40 µg/mL
solubility (fassgf or other biorelevant, thermodynamic from solid, vehicle Simulated gastric fluids (fasted and fed), free base, read-out: Solubility in vehicle at ambient temperature): < 40 µg/mL
Solubility in vehicle at ambient temperature (vehicle 0.01N HCl/34 mMNaCl, free base): 0.007 mg/g
Solubility in vehicle at ambient temperature (vehicle IMWITOR 742, free base): 318 mg/g
Solubility in vehicle at ambient temperature (vehicle IMWITOR:TWEEN (1:1), free base): >240 mg/g
Solubility in vehicle at ambient temperature (vehicle MIGLYOL 812, free base): 86 mg/g
Solubility in vehicle at ambient temperature (vehicle Water, free base): 0.001 mg/g
solubility (water, statement in description, read-out: solubility in water): 1 µg/mL (≈ 1.87 µM)
Structure (SMILES): CC(C)(F)[C@H](c1cc(F)cc(C#N)c1)C1CN([C@@H](c2ccc(Cl)cc2)c2cccc(-c3n[nH]c(=O)o3)c2)C1 [Compound I, 3-[(1S)-1-(1-{(S)-(4-chlorophenyl)[3-(5-oxo-4,5-dihydro-1,3,4-oxadiazol-2-yl)phenyl]methyl}azetidin-3-yl)-2-fluoro-2-methylpropyl]-5-fluorobenzonitrile]

Source: patent US20100081642A1, “CB-1 RECEPTOR MODULATOR PHARMACEUTICAL FORMULATIONS” (priority 2008, published 2010)
